Like-named read-outs stand apart in the source and are kept apart here.
Tests used:
rice plants [1] = conditions: in vivo
cucumber leaves [2] = test: Selection of a penetrant for the absorption of dimethomorph by cucumber leaves; conditions: 24 hours after spraying, dimethomorph 250 ppm (Forum wettable powder) + penetrant 1,000 ppm
Description: (§1) Forum wettable powder(a 25% dimethomorph formulation, Dongbang Agro Co., Ltd., Korea) was dispersed in water and added thereto were one of the penetrant candidate materials listed in Table 4 and Congo Red to obtain an agrochemical solution containing dimethomorph, a penetrant candidate and Congo Red at concentrations of 250 ppm, 1,000 ppm and 200 ppm, respectively. A control containing no penetrant was also prepared.
The agrochemical solution and control thus prepared were sprayed on leaves of each of six cucumber plants having 4 to 5 leaves, as well as on six glass plates(10 cm×10 cm). Immediately after the spraying, the sprayed cucumber leaves from 3 cucumber plants and three glass plates were washed with 12 ml portion of 30% acetonitrile-aqueous solution for 3 minutes to obtain standard wash extracts and controls.
The remaining three cucumber pots and three glass plates were stored in the dark at room temperature, and the same procedure was repeated at 24 hours after the spraying.
The concentrations of dimethomorph and Congo Red in the wash extracts were measured by HPLC(Spectra 200 Programmable Wavelength Detector, acetonitrile-water solvent programming, 42%-80%) . The wash extracts obtained immediately after the spraying were used as standard solutions, and Congo Red, as an internal standard. The foliar uptake rate of dimethomorph was calculated by comparing the concentrations of dimethomorph and Congo Red in the wash extracts obtained immediately after the spraying and at 24 hours after the spraying.

rice plants [3] = conditions: in vivo; for Time-dependent Uptake by Rice(%) (Mean ± S.D.(n = 3)) I.A. / Time-dependent Uptake by Rice(%) (Mean ± S.D.(n = 3)) after 1 hr / Time-dependent Uptake by Rice(%) (Mean ± S.D.(n = 3)) after 3 hrs / Time-dependent Uptake by Rice(%) (Mean ± S.D.(n = 3)) after 6 hrs / Time-dependent Uptake by Rice(%) (Mean ± S.D.(n = 3)) after 12 hrs / Time-dependent Uptake by Rice(%) (Mean ± S.D.(n = 3)) after 24 hrs: Dongjin byeo
cucumber leaves [4] = test: Foliar uptake of agrochemicals by cucumber plants (Congo Red tracer method); conditions: for Time-dependent Uptake by Cucumber(%) (Mean ± S.D.(n = 3)) after 24 hrs: 24 hrs after spraying
Description: (§2) (Step 1) Preparation of a solution containing agrochemicals and Congo Red
(§3) Since dimethomorph is not readily absorbed by the plant, 0.1% of stearylamine ethoxylate(SN, moles of ethylene oxide added: 10) was added as an adjuvant to enhance its foliar uptake.
(§4) Cucumber seeds(Baktadagi, Hung Nong Seed Co., Ltd., Korea) were sowed in disposable resin cup pots (id 47 mm×50 mm) at a density of three seeds per pot and cultivated in a greenhouse. Upon the complete development of cotyledons, the cucumber plants were each transplanted to a disposable resin cup pot(id 66 mm×h 66 mm) and cultivated in a greenhouse until the development of 4 to 5 leaves.
(§5) 18 pots of cucumber plants thus prepared were put in a spray booth and sprayed with the agrochemical solution prepared in (Step 1) in an amount of 80 l/ha. Further, 15 glass plates(10 cm×10 cm) were also sprayed with the same agrochemical solution prepared in (Step 1) in an amount of 80 l /ha.
(§6) Immediately after the spraying in (Step 2) , one leaf with its petiole attached was cut off from each of three cucumber plants, put in a test tube containing the appropriate washing solution and washed by agitating the tube with bottom-side up at 60 to 70 rpm for 2 minutes to obtain three wash extracts. Three glass plates were subjected to the same washing procedure in a petri dish(id 15.2 cm) to obtain three control wash extracts.
(§7) The remaining 15 cucumber plants and 12 glass plates were stored in the dark at room temperature, and the same washing procedure as above was repeated at 1 hour, 3 hours, 6 hours, 12 hours and 24 hours after the spraying.
(§8) The concentrations of the agrochemicals in the wash extracts were measured by HPLC(Spectra 200 Programmable Wavelength Detector, acetonitrile-water solvent programming, 42%-80%). The wash extracts obtained immediately after the spraying were used as standard solutions, and Congo Red, as an internal standard.

cucumber leaves [5] = conditions: Baktadagi, in vivo, 0 h
Description: as §2, §3, §4, §5, §6, §7, §8

[6] = Glass plate control run of Example 3 (loss of dimethomorph other than by plant uptake); conditions: 24 hours after spraying, stored in the dark at room temperature
Excerpt: The use of a control plate serves the purpose of determining the loss of agrochemical due to reasons other than plant uptake.
as §1
The agrochemical solution and control thus prepared were sprayed on leaves of each of six cucumber plants having 4 to 5 leaves, as well as on six glass plates(10 cm×10 cm). Immediately after the spraying, the sprayed cucumber leaves from 3 cucumber plants and three glass plates were washed with 12 ml portion of 30% acetonitrile-aqueous solution for 3 minutes to obtain standard wash extracts and controls. […]
The concentrations of dimethomorph and Congo Red in the wash extracts were measured by HPLC(Spectra 200 Programmable Wavelength Detector, acetonitrile-water solvent programming, 42%-80%) . […] The foliar uptake rate of dimethomorph was calculated by comparing the concentrations of dimethomorph and Congo Red in the wash extracts obtained immediately after the spraying and at 24 hours after the spraying.

stearylamine ethoxylate [stearylamine ethoxylate(10)]
Recovery (%) of tricyclazole (rice plants [1]): 46.1% | Uptake (%) of tricyclazole (rice plants [1]): 53.9% | Recovery (%) of dimethomorph (cucumber leaves [2]): 85.5% | Uptake (%) of dimethomorph (cucumber leaves [2]): 14.5%

Cc1cccc2sc3nncn3c12 [Tricyclazole, tricyclazole]
Time-dependent Uptake by Rice(%) (Mean ± S.D.(n = 3)) I.A. (rice plants [3]): 0 ± 1.1% | Time-dependent Uptake by Rice(%) (Mean ± S.D.(n = 3)) after 1 hr (rice plants [3]): 1.4 ± 0.7% | Time-dependent Uptake by Rice(%) (Mean ± S.D.(n = 3)) after 3 hrs (rice plants [3]): 1.1 ± 1.5% | Time-dependent Uptake by Rice(%) (Mean ± S.D.(n = 3)) after 6 hrs (rice plants [3]): 2.0 ± 1.4% | Time-dependent Uptake by Rice(%) (Mean ± S.D.(n = 3)) after 12 hrs (rice plants [3]): 4.1 ± 0.5% | Time-dependent Uptake by Rice(%) (Mean ± S.D.(n = 3)) after 24 hrs (rice plants [3]): 11.0 ± 0.9% | absorption by the rice plants (in words) (rice plants [3]): absorbed by the rice plants at a steady rate | Recovery (%) of tricyclazole (rice plants [1]; rice): 82.4% | Uptake (%) of tricyclazole (rice plants [1]; rice): 17.6%

CCCCC(CC)COC(=O)CC(C(=O)OCC(CC)CCCC)S(=O)(=O)[O-].[Na+] (stereo not shown) [sodium dioctylsulfosuccinate]
Recovery (%) of tricyclazole (rice plants [1]): 79.1% | Uptake (%) of tricyclazole (rice plants [1]): 20.9% | Recovery (%) of dimethomorph (cucumber leaves [2]): 94.5% | Uptake (%) of dimethomorph (cucumber leaves [2]): 5.5%

CCOP(=O)(Sc1ccccc1)Sc1ccccc1 [Edifenphos, edifenphos]
Time-dependent Uptake by Rice(%) (Mean ± S.D.(n = 3)) I.A. (rice plants [3]): 0 ± 1.3% | Time-dependent Uptake by Rice(%) (Mean ± S.D.(n = 3)) after 1 hr (rice plants [3]): 1.5 ± 1.1% | Time-dependent Uptake by Rice(%) (Mean ± S.D.(n = 3)) after 3 hrs (rice plants [3]): 4.9 ± 0.7% | Time-dependent Uptake by Rice(%) (Mean ± S.D.(n = 3)) after 6 hrs (rice plants [3]): 7.8 ± 0.4% | Time-dependent Uptake by Rice(%) (Mean ± S.D.(n = 3)) after 12 hrs (rice plants [3]): 14.5 ± 1.3% | Time-dependent Uptake by Rice(%) (Mean ± S.D.(n = 3)) after 24 hrs (rice plants [3]): 29.8 ± 1.9% | absorption by the rice plants (in words) (rice plants [3]): absorbed by the rice plants at a steady rate

OC(c1ccc(Cl)cc1)(c1cncnc1)c1ccccc1Cl (stereo not shown) [Fenarimol, fenarimol]
Time-dependent Uptake by Cucumber(%) (Mean ± S.D.(n = 3)) after 1 hr (cucumber leaves [4]; 1 hr after spraying, stored in the dark, dimethomorph with 0.1% stearylamine ethoxylate): 2.0 ± 8.1% | Time-dependent Uptake by Cucumber(%) (Mean ± S.D.(n = 3)) after 3 hrs (cucumber leaves [4]; 3 hrs after spraying, stored in the dark, dimethomorph with 0.1% stearylamine ethoxylate): 3.2 ± 1.8% | Time-dependent Uptake by Cucumber(%) (Mean ± S.D.(n = 3)) after 6 hrs (cucumber leaves [4]; 6 hrs after spraying, stored in the dark, dimethomorph with 0.1% stearylamine ethoxylate): 5.2 ± 2.5% | Time-dependent Uptake by Cucumber(%) (Mean ± S.D.(n = 3)) after 12 hrs (cucumber leaves [4]; 12 hrs after spraying, stored in the dark, dimethomorph with 0.1% stearylamine ethoxylate): 8.0 ± 4.1% | Time-dependent Uptake by Cucumber(%) (Mean ± S.D.(n = 3)) after 24 hrs (cucumber leaves [4]; stored in the dark, dimethomorph with 0.1% stearylamine ethoxylate): 15.1 ± 4.0% | Time-dependent Uptake by Cucumber(%) (Mean ± S.D.(n = 3)) after 24 hrs (cucumber leaves [4]; stored in the dark, dimethomorph with 0.1% stearylamine ethoxylate, listed as fenarimol): 15.1% | Time-dependent Uptake by Cucumber(%) (Mean ± S.D.(n = 3)) I.A. (cucumber leaves [4]; immediately after the spraying, 80 l/ha, dimethomorph solution with 0.1% stearylamine ethoxylate): 0 ± 3.1%

laurylamine ethoxylate [laurylamine ethoxylate(7)]
Recovery (%) of tricyclazole (rice plants [1]): 35.4% | Uptake (%) of tricyclazole (rice plants [1]): 64.6% | Recovery (%) of dimethomorph (cucumber leaves [2]): 96.3% | Uptake (%) of dimethomorph (cucumber leaves [2]): 3.7%

tridecyl alcohol ethoxylate [tridecyl alcohol ethoxylate(5)]
Recovery (%) of tricyclazole (rice plants [1]): 75.6% | Uptake (%) of tricyclazole (rice plants [1]): 24.4% | Recovery (%) of dimethomorph (cucumber leaves [2]): 98.0% | Uptake (%) of dimethomorph (cucumber leaves [2]): 2.0%

COc1ccc(C(=CC(=O)N2CCOCC2)c2ccc(Cl)cc2)cc1OC [Dimethomorph, dimethomorph]
Time-dependent Uptake by Cucumber(%) (Mean ± S.D.(n = 3)) I.A. (cucumber leaves [5]): 0 ± 0.7% | Uptake (%) of dimethomorph [6]: 0.0%

castor oil ethoxylate [castor oil ethoxylate(17)]
Recovery (%) of tricyclazole (rice plants [1]): 63.7% | Uptake (%) of tricyclazole (rice plants [1]): 36.3%

CC12CC1(C)C(=O)N(c1cc(Cl)cc(Cl)c1)C2=O (stereo not shown) [Procymidone, procymidone]
Time-dependent Uptake by Cucumber(%) (Mean ± S.D.(n = 3)) I.A. (cucumber leaves [5]): 0 ± 0.8%

CC(C)OC(=O)C(C(=O)OC(C)C)=C1SCCS1 [Isoprothiolane, isoprothiolane]
Time-dependent Uptake by Rice(%) (Mean ± S.D.(n = 3)) I.A. (rice plants [3]): 0 ± 1.0% | Time-dependent Uptake by Rice(%) (Mean ± S.D.(n = 3)) after 1 hr (rice plants [3]): 7.9 ± 1.9% | Time-dependent Uptake by Rice(%) (Mean ± S.D.(n = 3)) after 3 hrs (rice plants [3]): 11.6 ± 1.2% | Time-dependent Uptake by Rice(%) (Mean ± S.D.(n = 3)) after 6 hrs (rice plants [3]): 16.1 ± 1.3% | Time-dependent Uptake by Rice(%) (Mean ± S.D.(n = 3)) after 12 hrs (rice plants [3]): 27.8 ± 1.1% | Time-dependent Uptake by Rice(%) (Mean ± S.D.(n = 3)) after 24 hrs (rice plants [3]): 47.1 ± 2.5% | absorption by the rice plants (in words) (rice plants [3]): absorbed by the rice plants at a steady rate

nonylphenol ethoxylate [nonylphenol ethoxylate(10)]
Recovery (%) of tricyclazole (rice plants [1]): 80.6% | Uptake (%) of tricyclazole (rice plants [1]): 19.4% | Recovery (%) of dimethomorph (cucumber leaves [2]): 99.8% | Uptake (%) of dimethomorph (cucumber leaves [2]): 0.2%

Source: US20010001713A1, “Composition and method for measuring the foliar uptake of agrochemicals” (priority 1999, published 2001)
